The target of this experiment is T1, ERα (Homo sapiens, UniProt P03372).
T1 construct: host or cells: MCF7
T1 sequence (P03372 1-595): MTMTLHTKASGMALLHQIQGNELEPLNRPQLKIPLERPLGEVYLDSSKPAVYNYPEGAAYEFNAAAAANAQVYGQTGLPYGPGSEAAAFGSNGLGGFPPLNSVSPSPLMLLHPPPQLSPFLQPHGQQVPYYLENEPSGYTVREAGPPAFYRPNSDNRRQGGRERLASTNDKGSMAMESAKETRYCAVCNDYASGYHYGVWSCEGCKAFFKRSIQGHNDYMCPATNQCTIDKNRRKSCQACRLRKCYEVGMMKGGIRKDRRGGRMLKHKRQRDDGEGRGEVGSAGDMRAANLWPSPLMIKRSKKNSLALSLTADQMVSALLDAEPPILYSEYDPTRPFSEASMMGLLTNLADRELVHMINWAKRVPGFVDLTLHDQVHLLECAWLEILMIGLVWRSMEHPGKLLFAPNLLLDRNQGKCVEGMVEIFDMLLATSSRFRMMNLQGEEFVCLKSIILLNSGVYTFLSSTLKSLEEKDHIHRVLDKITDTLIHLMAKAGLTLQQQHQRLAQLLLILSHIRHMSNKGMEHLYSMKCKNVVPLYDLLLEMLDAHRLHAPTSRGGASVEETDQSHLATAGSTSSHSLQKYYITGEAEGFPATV
The experiment can be described thus: Estrogen receptor degradation activity: breast cancer cell ERα in cell western assay (MCF7 cells). The conditions noted are these: for % Degradation At 0.3 μM: 4 hours, relative to fulvestrant 0.1 μM positive control; for DC50: 4 hours post compound addition, concentration which degrades 50% of the estrogen receptor, read-out: Degradation IC50. The experiment is classed as cell-based. Put shortly:
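Compounds were applied to MCF7 cells in stripped-serum, phenol red-free medium for 4 h at final 0.3–0.0000018 μM, with fulvestrant (0.1 μM) as control. Value: IC50 (nM) for 50% ERα degradation.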

In the case of `O=C(O)c1ccc2c(c1)CCCC(c1ncc(Cl)cc1F)=C2c1ccc(CC2CN(CCCF)C2)cc1` [Example 219, 8-(5-chloro-3-fluoropyridin-2-yl)-9-(4-((1-(3-fluoropropyl)azetidin-3-yl)methyl)phenyl)-6,7-dihydro-5H-benzo[7]annulene-3-carboxylic acid], the “% Degradation At 0.3 μM” value is reported as 92% and the DC50 amounted to 6.5 nM.

As for `O=C(O)c1ccc2c(c1)CCCC(c1ccccc1CC(F)(F)F)=C2c1ccc(CC2CN(CCCF)C2)cc1` [Example 301, 9-(4-((1-(3-fluoropropyl)azetidin-3-yl)methyl)phenyl)-8-(2-(2,2,2-trifluoroethyl)phenyl)-6,7-dihydro-5H-benzo[7]annulene-3-carboxylic acid], the “% Degradation At 0.3 μM” value came out at 89% and the DC50 turned out to be 0.5 nM.

For `O=C(O)c1c(F)cc2c(c1F)CCCC(c1ccc(Cl)cc1Cl)=C2c1ccc(CC2CN(CCCF)C2)cc1` [Example 225, 8-(2,4-dichlorophenyl)-2,4-difluoro-9-(4-((1-(3-fluoropropyl)azetidin-3-yl)methyl)phenyl)-6,7-dihydro-5H-benzo[7]annulene-3-carboxylic acid], the “% Degradation At 0.3 μM” value is 82% and the DC50 is 6.6 nM.

Regarding `Cl.O=C(O)c1ccc2c(c1)OCCC(c1ccccc1Cl)=C2c1ccc(CC2CN(CCCF)C2)cc1` [Example 49, 4-(2-chlorophenyl)-5-(4-((1-(3-fluoropropyl)azetidin-3-yl)methyl)phenyl)-2,3-dihydrobenzo[b]oxepine-8-carboxylic acid], the “% Degradation At 0.3 μM” value came out at 82% and the DC50 stood at 3.4 nM.

Consider `O=C(O)c1ccc2c(c1)CCCC(c1c(Cl)cccc1C(F)(F)F)=C2c1ccc(CC2CN(CCCF)C2)cc1` [Example 34, 8-(2-chloro-6-(trifluoromethyl)phenyl)-9-(4-((1-(3-fluoropropyl)azetidin-3-yl)methyl)phenyl)-6,7-dihydro-5H-benzo[7]annulene-3-carboxylic acid], for which the “% Degradation At 0.3 μM” value turned out to be 79% and the DC50 is 0.2 nM.

As for `CC1CCc2cc(C(=O)O)ccc2C(c2ccc(CC3CN(CCCF)C3)cc2)=C1c1ccc(F)c(F)c1` (racemic) [Example 326, 8-(3,4-difluorophenyl)-9-(4-((1-(3-fluoropropyl)azetidin-3-yl)methyl)phenyl)-7-methyl-6,7-dihydro-5H-benzo[7]annulene-3-carboxylic acid], the “% Degradation At 0.3 μM” value was found to be 91% and the DC50 was found to be 0.7 nM.

Take `O=C(O)c1ccc2c(c1)CCCC(c1ccc(Cl)cc1Cl)=C2c1ccc(C(F)C2CN(CCCF)C2)cc1` (single isomer, unassigned) [Example 44, 8-(2,4-dichlorophenyl)-9-(4-(fluoro(1-(3-fluoropropyl)azetidin-3-yl)methyl)phenyl)-6,7-dihydro-5H-benzo[7]annulene-3-carboxylic acid]: the “% Degradation At 0.3 μM” value is reported as 90% and the DC50 is 0.5 nM.

Consider `Cl.O=C(O)c1ccc2c(c1)CCCC(C1=CCC(F)(F)CC1)=C2c1ccc(CC2CN(CCCF)C2)cc1` [Example 5, 8-(4,4-difluorocyclohex-1-en-1-yl)-9-(4-((1-(3-fluoropropyl)azetidin-3-yl)methyl)phenyl)-6,7-dihydro-5H-benzo[7]annulene-3-carboxylic acid], for which the “% Degradation At 0.3 μM” value worked out at 86% and the DC50 came out at 0.5 nM.

In the case of `O=C(O)c1ccc2c(c1)CCCC(c1cccc(Cl)c1F)=C2c1ccc(CC2CN(CCCF)C2)cc1` [Example 32, 8-(3-chloro-2-fluorophenyl)-9-(4-((1-(3-fluoropropyl)azetidin-3-yl)methyl)phenyl)-6,7-dihydro-5H-benzo[7]annulene-3-carboxylic acid], the “% Degradation At 0.3 μM” value stood at 94% and the DC50 was 0.6 nM.

For `O=C(O)c1ccc2c(c1)CCCC(c1ccccc1Cl)=C2c1ccc(CC2CN(CCCF)C2)cn1` [Example 252, 8-(2-chlorophenyl)-9-(5-((1-(3-fluoropropyl)azetidin-3-yl)methyl)pyridin-2-yl)-6,7-dihydro-5H-benzo[7]annulene-3-carboxylic Acid], the “% Degradation At 0.3 μM” value came to 67% and the DC50 was 48.6 nM.

As for `Cl.O=C(O)c1ccc2c(c1)CCCC(c1c(F)cc(F)cc1C(F)F)=C2c1ccc(CC2CN(CCCF)C2)cc1` [Example 284, 8-(2-(difluoromethyl)-4,6-difluorophenyl)-9-(4-((1-(3-fluoropropyl)azetidin-3-yl)methyl)phenyl)-6,7-dihydro-5H-benzo[7]annulene-3-carboxylic acid hydrochloride], the “% Degradation At 0.3 μM” value is 96% and the DC50 stood at 0.3 nM.

In the case of `O=C(O)c1ccc2c(c1)CCCC(c1ccc(Cl)cc1Cl)=C2c1ccc(CC2(F)CN(CCCF)C2)cc1` [Example 46, 8-(2,4-dichlorophenyl)-9-(4-((3-fluoro-1-(3-fluoropropyl)azetidin-3-yl)methyl)phenyl)-6,7-dihydro-5H-benzo[7]annulene-3-carboxylic acid], the “% Degradation At 0.3 μM” value came out at 88% and the DC50 came to 0.6 nM.

Consider `O=C(O)c1ccc2c(c1)CCCC(c1cccc3c1CC3)=C2c1ccc(CC2CN(CCCF)C2)cc1` [Example 53, 8-(bicyclo[4.2.0]octa-1(6),2,4-trien-2-yl)-9-(4-((1-(3-fluoropropyl)azetidin-3-yl)methyl)phenyl)-6,7-dihydro-5H-benzo[7]annulene-3-carboxylic acid], for which the “% Degradation At 0.3 μM” value is on record as 91% and the DC50 is 0.4 nM.

Turning to `O=C(O)c1ccc2c(c1)CCCC(c1ccc(F)cc1CC(F)(F)F)=C2c1ccc(CC2CN(CCCF)C2)cc1` [Example 272, 8-(4-fluoro-2-(2,2,2-trifluoroethyl)phenyl)-9-(4-((1-(3-fluoropropyl)azetidin-3-yl)methyl)phenyl)-6,7-dihydro-5H-benzo[7]annulene-3-carboxylic acid], the “% Degradation At 0.3 μM” value is 90% and the DC50 stood at 0.6 nM.

For the molecule `Cc1c(C2=C(c3ccc(CC4CN(CCC(F)F)C4)cc3)c3ccc(C(=O)O)cc3CCC2)ccc(F)c1F` [Example 275, 8-(3,4-difluoro-2-methylphenyl)-9-(4-((1-(3,3-difluoropropyl)azetidin-3-yl)methyl)phenyl)-6,7-dihydro-5H-benzo[7]annulene-3-carboxylic acid], the “% Degradation At 0.3 μM” value is on record as 89% and the DC50 was found to be 0.4 nM.

As for `Cc1c(Cl)cccc1C1=C(c2ccc(CC3CN(CCC(F)F)C3)cc2)c2ccc(C(=O)O)cc2CCC1` [Example 293, 8-(3-chloro-2-methylphenyl)-9-(4-((1-(3,3-difluoropropyl)azetidin-3-yl)methyl)phenyl)-6,7-dihydro-5H-benzo[7]annulene-3-carboxylic acid], the “% Degradation At 0.3 μM” value is 86% and the DC50 turned out to be 0.6 nM.

On to `Cc1ccc(C2=C(c3ccc(CC4CN(CCCF)C4)cc3)c3cc(F)c(C(=O)O)c(F)c3CCC2)c(Cl)c1` [Example 217, 8-(2-chloro-4-methylphenyl)-2,4-difluoro-9-(4-((1-(3-fluoropropyl)azetidin-3-yl)methyl)phenyl)-6,7-dihydro-5H-benzo[7]annulene-3-carboxylic acid], for which the “% Degradation At 0.3 μM” value came out at 86% and the DC50 turned out to be 6.2 nM.

Take `Cc1ccc(C2=C(c3ccc(CC4CN(CCCF)C4)cc3)c3ccc(C(=O)O)cc3CCC2)c(F)c1.Cl` [Example 11, 8-(2-fluoro-4-methylphenyl)-9-(4-((1-(3-fluoropropyl)azetidin-3-yl)methyl)phenyl)-6,7-dihydro-5H-benzo[7]annulene-3-carboxylic acid]: the “% Degradation At 0.3 μM” value is given as 91% and the DC50 stood at 0.4 nM.

As for `O=C(O)c1ccc2c(c1)CCCC(c1c(F)cccc1C(F)(F)F)=C2c1ccc(CC2CN(CCCF)C2)cc1` [Example 31, 8-(2-fluoro-6-(trifluoromethyl)phenyl)-9-(4-((1-(3-fluoropropyl)azetidin-3-yl)methyl)phenyl)-6,7-dihydro-5H-benzo[7]annulene-3-carboxylic acid], the “% Degradation At 0.3 μM” value is 89% and the DC50 was determined as 0.3 nM.

With `Cc1cc(OC(F)F)ccc1C1=C(c2ccc(CC3CN(CCCF)C3)cc2)c2ccc(C(=O)O)cc2CCC1` [Example 20, 8-(4-(difluoromethoxy)-2-methylphenyl)-9-(4-((1-(3-fluoropropyl)azetidin-3-yl)methyl)phenyl)-6,7-dihydro-5H-benzo[7]annulene-3-carboxylic acid], the “% Degradation At 0.3 μM” value turned out to be 91% and the DC50 worked out at 0.3 nM.

For `O=C(O)c1ccc2c(c1)CCCC(c1ccc(Cl)cc1Cl)=C2c1ccc(CC2CN(CCCF)C2)c(F)c1` [Example 239, 8-(2,4-dichlorophenyl)-9-(3-fluoro-4-((1-(3-fluoropropyl)azetidin-3-yl)methyl)phenyl)-6,7-dihydro-5H-benzo[7]annulene-3-carboxylic acid], the “% Degradation At 0.3 μM” value is 93% and the DC50 was 0.4 nM.

Regarding `O=C(O)c1ccc2c(c1)SCC(c1ccc(F)cc1F)=C2c1ccc(CC2CN(CCCF)C2)cc1` [Example 314, 3-(2,4-difluorophenyl)-4-(4-((1-(3-fluoropropyl)azetidin-3-yl)methyl)phenyl)-2H-thiochromene-7-carboxylic acid], the “% Degradation At 0.3 μM” value is listed as 87% and the DC50 stood at 3 nM.
